Key:
SYK = target: T1, SYK (Homo sapiens, UniProt P43405); assay: SYK flash plate assay (enzyme assay); assay type: biochemical
T1 construct: 2.5 nM SYK, 400 nM Biotin-Aha-Aha-KEDPDYEWPSAKK
Method in brief: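 Radiometric Flashplate format: biotinylated peptide substrate (400 nM) and 33P-labelled ATP (10 μM) react with 2.5 nM enzyme for 1 hour at 30 °C in Hepes buffer, pH 7.5. After EDTA quench and washing, counts are taken; staurosporine defines non-specific signal, and IC50 values are derived.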

GCN2 = GCN2 (Homo sapiens, UniProt Q9P2K8); assay: GCN2 enzyme assay; assay type: biochemical
Sequence of GCN2 (Q9P2K8 whole entry): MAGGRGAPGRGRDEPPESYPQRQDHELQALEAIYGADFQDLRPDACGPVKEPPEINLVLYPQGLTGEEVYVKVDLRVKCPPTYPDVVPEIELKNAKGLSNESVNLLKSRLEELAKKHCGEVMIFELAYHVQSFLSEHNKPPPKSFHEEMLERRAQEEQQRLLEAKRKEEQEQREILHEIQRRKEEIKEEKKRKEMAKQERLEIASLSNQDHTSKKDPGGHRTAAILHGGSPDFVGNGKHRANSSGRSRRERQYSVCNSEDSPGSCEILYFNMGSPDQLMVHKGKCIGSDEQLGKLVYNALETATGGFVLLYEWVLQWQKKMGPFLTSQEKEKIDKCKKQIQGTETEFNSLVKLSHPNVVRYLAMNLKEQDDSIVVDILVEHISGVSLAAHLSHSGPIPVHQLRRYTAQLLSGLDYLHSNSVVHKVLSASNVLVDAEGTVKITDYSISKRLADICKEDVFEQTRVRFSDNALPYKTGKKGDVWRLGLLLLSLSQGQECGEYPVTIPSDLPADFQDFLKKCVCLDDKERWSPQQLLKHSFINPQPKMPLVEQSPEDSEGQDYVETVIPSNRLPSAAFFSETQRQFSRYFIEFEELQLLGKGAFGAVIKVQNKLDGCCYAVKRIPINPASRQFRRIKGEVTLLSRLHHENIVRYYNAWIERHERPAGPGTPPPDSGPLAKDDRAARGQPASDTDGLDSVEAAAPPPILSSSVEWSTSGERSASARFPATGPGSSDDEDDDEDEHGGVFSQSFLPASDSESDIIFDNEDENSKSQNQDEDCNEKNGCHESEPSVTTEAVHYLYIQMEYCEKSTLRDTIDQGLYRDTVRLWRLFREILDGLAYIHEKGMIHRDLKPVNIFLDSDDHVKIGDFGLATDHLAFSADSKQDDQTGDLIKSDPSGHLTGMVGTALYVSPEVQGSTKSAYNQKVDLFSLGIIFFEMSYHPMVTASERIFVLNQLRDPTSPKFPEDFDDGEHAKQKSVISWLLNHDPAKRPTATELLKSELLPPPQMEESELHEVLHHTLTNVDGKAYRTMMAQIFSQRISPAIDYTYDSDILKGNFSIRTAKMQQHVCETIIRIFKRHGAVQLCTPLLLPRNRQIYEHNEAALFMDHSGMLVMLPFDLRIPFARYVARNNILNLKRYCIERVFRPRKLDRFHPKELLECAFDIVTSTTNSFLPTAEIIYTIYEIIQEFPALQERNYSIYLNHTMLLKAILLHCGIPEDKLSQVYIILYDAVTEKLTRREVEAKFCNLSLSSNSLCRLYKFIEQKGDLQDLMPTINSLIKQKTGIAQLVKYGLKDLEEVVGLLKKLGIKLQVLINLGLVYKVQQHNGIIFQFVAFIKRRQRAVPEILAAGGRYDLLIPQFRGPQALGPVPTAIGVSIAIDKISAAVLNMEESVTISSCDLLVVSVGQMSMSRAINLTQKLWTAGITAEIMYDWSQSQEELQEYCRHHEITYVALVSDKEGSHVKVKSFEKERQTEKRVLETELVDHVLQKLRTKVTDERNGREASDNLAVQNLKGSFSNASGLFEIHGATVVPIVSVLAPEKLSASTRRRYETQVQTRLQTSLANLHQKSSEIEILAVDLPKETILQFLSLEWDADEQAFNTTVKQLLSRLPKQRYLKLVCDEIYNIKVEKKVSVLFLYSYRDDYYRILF

SMILES | IC50 (SYK) | IC50 (GCN2)
CC1(C)C(=O)Nc2cc(Nc3nc4c(-c5cn[nH]c5)nccn4n3)ccc21 [C67, 3,3-dimethyl-6-[8-(1H-pyrazol-4-yl)-[1,2,4]triazolo[1,5-a]pyrazin-2-ylamino]-1,3-dihydro-indol-2-one] | < 0.1 µM | 0.3 to 3 µM
CN1c2ccc(Nc3nc4c(-c5cnn(C)c5)nccn4n3)cc2CS1(=O)=O [C117, (1-methyl-2,2-dioxo-2,3-dihydro-1H-2I6-benzo[c]isothiazol-5-yl)-[8-(1-methyl-1H-pyrazol-4-yl)-[1,2,4]triazolo[1,5-a]pyrazin-2-yl]-amine] | 0.1 to 0.3 µM | 0.3 to 3 µM
Cn1cc(-c2nccn3nc(Nc4ccc5c(c4)NC(=O)C(C)(C)O5)nc23)cn1 [C80, 2,2-dimethyl-6-[8-(1-methyl-1H-pyrazol-4-yl)-[1,2,4]triazolo[1,5-a]pyrazin-2-ylamino]-4H-benzo[1,4]oxazin-3-one] | 0.1 to 0.3 µM | 3 to 50 µM
CC1(C)C(=O)Nc2cc(Nc3nc4c(N5CCC[C@H](N)C5)nccn4n3)ccc21 [C99, 6-[8-((S)-3-amino-piperidin-1-yl)-[1,2,4]triazolo[1,5-a]pyrazin-2-ylamino]-3,3-dimethyl-1,3-dihydro-indol-2-one] | < 0.1 µM | 3 to 50 µM
COc1cc(Nc2nc3c(N4CCNC(=O)C4)nccn3n2)cc(OC)c1 [C43, 4-[2-(3,5-dimethoxy-phenylamino)-[1,2,4]triazolo[1,5-a]pyrazin-8-yl]-piperazin-2-one] | 0.3 to 3 µM | 3 to 50 µM
COc1cc(Nc2nc3c(N4CCN(C(=O)CO)CC4)nccn3n2)cc(OC)c1 [C56, 1-{4-[2-(3,5-dimethoxy-phenylamino)-[1,2,4]triazolo[1,5-a]pyrazin-8-yl]-piperazin-1-yl}-2-hydroxy-ethanone] | 0.3 to 3 µM | 3 to 50 µM
CC1(C)C(=O)Nc2cc(Nc3nc4c(N5CC[C@H](O)C5)nccn4n3)ccc21 [C83, 6-[8-((S)-3-hydroxy-pyrrolidin-1-yl)-[1,2,4]triazolo[1,5-a]pyrazin-2-ylamino]-3,3-dimethyl-1,3-dihydro-indol-2-one] | 0.1 to 0.3 µM | 3 to 50 µM
CN(c1nccn2nc(Nc3ccc4c(c3)NC(=O)C4(C)C)nc12)C1CCCCC1 [C78, 6-[8-(cyclohexyl-methyl-amino)-[1,2,4]triazolo[1,5-a]pyrazin-2-ylamino]-3,3-dimethyl-1,3-dihydro-indol-2-one] | 0.3 to 3 µM | 3 to 50 µM
CC1(C)C(=O)Nc2cc(Nc3nc4c(N5CC(O)C5)nccn4n3)ccc21 [C74, 6-[8-(3-hydroxy-azetidin-1-yl)-[1,2,4]triazolo[1,5-a]pyrazin-2-ylamino]-3,3-dimethyl-1,3-dihydro-indol-2-one] | 0.1 to 0.3 µM | 3 to 50 µM
O=C(c1ccc(-c2nccn3nc(Nc4ccc(N5CCOCC5)cc4)nc23)cc1)N1CCOCC1 [C41, morpholin-4-yl-{4-[2-(4-morpholin-4-yl-phenylamino)-[1,2,4]triazolo[1,5-a]pyrazin-8-yl]-phenyl}-methanone] | 3 to 50 µM | 3 to 50 µM
N#CC1(c2ccc(Nc3nc4c(-c5cn[nH]c5)nccn4n3)cc2)CC1 [C65, 1-{4-[8-(1H-pyrazol-4-yl)-[1,2,4]triazolo[1,5-a]pyrazin-2-ylamino]-phenyl}-cyclopropanecarbonitrile] | 0.1 to 0.3 µM | 3 to 50 µM
CC1(C)C(=O)Nc2cc(Nc3nc4c(N5CCC[C@@H](N)C5)nccn4n3)ccc21 [C94, 6-[8-((R)-3-amino-piperidin-1-yl)-[1,2,4]triazolo[1,5-a]pyrazin-2-ylamino]-3,3-dimethyl-1,3-dihydro-indol-2-one] | < 0.1 µM | 3 to 50 µM
Cc1nc2cc(Nc3nc4c(-c5ccc(CN6CCOCC6)c(F)c5)nccn4n3)ccc2[nH]1 [C59, [8-(3-fluoro-4-morpholin-4-ylmethyl-phenyl)-[1,2,4]triazolo[1,5-a]pyrazin-2-yl]-(2-methyl-1H-benzoimidazol-5-yl)-amine] | 3 to 50 µM | 0.3 to 3 µM
CC1(C)C(=O)Nc2cc(Nc3nc4c(N5CCC6(C5)NC(=O)NC6=O)nccn4n3)ccc21 (stereo not drawn) [C108, 7-[2-(3,3-dimethyl-2-oxo-2,3-dihydro-1H-indol-6-ylamino)-[1,2,4]triazolo[1,5-a]pyrazin-8-yl]-1,3,7-triaza-spiro[4.4]nonane-2,4-dione] | < 0.1 µM | 3 to 50 µM
Cn1cc(-c2nccn3nc(Nc4ccc5c(C(=O)C(F)(F)F)c[nH]c5c4)nc23)cn1 [C112, 2,2,2-trifluoro-1-{6-[8-(1-methyl-1H-pyrazol-4-yl)-[1,2,4]triazolo[1,5-a]pyrazin-2-ylamino]-1H-indol-3-yl}-ethanone] | 0.3 to 3 µM | 3 to 50 µM
Cc1nn(C)cc1-c1nccn2nc(Nc3ccc4c(c3)NC(=O)C4(C)C)nc12 [C69, 6-[8-(1,3-dimethyl-1H-pyrazol-4-yl)-[1,2,4]triazolo[1,5-a]pyrazin-2-ylamino]-3,3-dimethyl-1,3-dihydro-indol-2-one] | 0.1 to 0.3 µM | 0.3 to 3 µM

SMILES | IC50 (SYK) | IC50 (GCN2)
Cn1cc(-c2nccn3nc(Nc4ccc5c(C(C)(O)C(F)(F)F)c[nH]c5c4)nc23)cn1 (stereo not drawn) [C113, 1,1,1-trifluoro-2-{6-[8-(1-methyl-1H-pyrazol-4-yl)-[1,2,4]triazolo[1,5-a]pyrazin-2-ylamino]-1H-indol-3-yl}-propan-2-ol] | < 0.1 µM | 0.3 to 3 µM
CC1(C)C(=O)Nc2cc(Nc3nc4c(N5CCC[C@H]5CO)nccn4n3)ccc21 [C84, 6-[8-((S)-2-hydroxymethyl-pyrrolidin-1-yl)-[1,2,4]triazolo[1,5-a]pyrazin-2-ylamino]-3,3-dimethyl-1,3-dihydro-indol-2-one] | 0.1 to 0.3 µM | 3 to 50 µM
CN(C)Cc1nc2ccc(Nc3nc4c(-c5cnn(C)c5)nccn4n3)cc2[nH]1 [C33, (2-Dimethylaminomethyl-3H-benzoimidazol-5-yl)-[8-(1-methyl-1H-pyrazol-4-yl)-[1,2,4]triazolo[1,5-a]pyrazin-2-yl]-amine] | 0.1 to 0.3 µM | 0.3 to 3 µM
Cn1cc(-c2nccn3nc(Nc4ccc5c(c4)NC(=O)CC5(C)C)nc23)cn1 [C144, 4,4-dimethyl-7-[8-(1-methyl-1H-pyrazol-4-yl)-[1,2,4]triazolo[1,5-a]pyrazin-2-ylamino]-3,4-dihydro-1H-quinolin-2-one] | < 0.1 µM | 0.3 to 3 µM
CC1(C)C(=O)Nc2cc(Nc3nc4c(N5CCc6[nH]cnc6C5)nccn4n3)ccc21 [C103, 3,3-dimethyl-6-[8-(1,4,6,7-tetrahydro-imidazo[4,5-c]pyridin-5-yl)-[1,2,4]triazolo[1,5-a]pyrazin-2-ylamino]-1,3-dihydro-indol-2-one] | < 0.1 µM | 3 to 50 µM
Cn1cc(-c2nccn3nc(Nc4ccc5c(c4)NC(=O)C5(C)C)nc23)cn1 [C34, 3,3-Dimethyl-6-[8-(1-methyl-1H-pyrazol-4-yl)-[1,2,4]triazolo[1,5-a]pyrazin-2-ylamino]-1,3-dihydro-indol-2-one] | < 0.1 µM | 3 to 50 µM
CC(C)C1(C(C)C)OC(=O)Nc2cc(Nc3nc4c(-c5cnn(C)c5)nccn4n3)ccc21 [C119, 4,4-diisopropyl-7-[8-(1-methyl-1H-pyrazol-4-yl)-[1,2,4]triazolo[1,5-a]pyrazin-2-ylamino]-1,4-dihydro-benzo[d][1,3]oxazin-2-one] | 0.1 to 0.3 µM | 3 to 50 µM
CC1(C)C(=O)Nc2cc(Nc3nc4c(N5CCC6(COC6)C5)nccn4n3)ccc21 [C81, 3,3-dimethyl-6-[8-(2-oxa-6-aza-spiro[3.4]oct-6-yl)-[1,2,4]triazolo[1,5-a]pyrazin-2-ylamino]-1,3-dihydro-indol-2-one] | < 0.1 µM | 3 to 50 µM
Cn1cc(-c2nccn3nc(Nc4ccc5cnn(C)c5c4)nc23)cn1 [C21, (1-Methyl-1H-indazol-6-yl)-[8-(1-methyl-1H-pyrazol-4-yl)-[1,2,4]triazolo[1,5-a]pyrazin-2-yl]-amine] | 0.3 to 3 µM | 3 to 50 µM
Cn1cc(-c2nccn3nc(Nc4ccc(C5(C(N)=O)CC5)cc4)nc23)cn1 [C64, 1-{4-[8-(1-methyl-1H-pyrazol-4-yl)-[1,2,4]triazolo[1,5-a]pyrazin-2-ylamino]-phenyl}-cyclopropanecarboxylic acid amide] | 0.3 to 3 µM | 0.3 to 3 µM
CC1(C)C(=O)Nc2cc(Nc3nc4c(N5CCC(F)(F)C5)nccn4n3)ccc21 [C105, 6-[8-(3,3-difluoro-pyrrolidin-1-yl)-[1,2,4]triazolo[1,5-a]pyrazin-2-ylamino]-3,3-dimethyl-1,3-dihydro-indol-2-one] | < 0.1 µM | 3 to 50 µM
COc1ccc(Nc2nc3c(-c4cnn(C)c4)nccn3n2)cc1 [C2, (4-Methoxy-phenyl)-[8-(1-methyl-1H-pyrazol-4-yl)-[1,2,4]triazolo[1,5-a]pyrazin-2-yl]-amine] | 0.3 to 3 µM | 3 to 50 µM
Cn1cc(-c2nccn3nc(Nc4ccc(CS(=O)(=O)O)c(N)c4)nc23)cn1 [E36, {2-amino-4-[8-(1-methyl-1H-pyrazol-4-yl)-[1,2,4]triazolo[1,5-a]pyrazin-2-ylamino]-phenyl}-methanesulfonic acid] | 0.1 to 0.3 µM | 
CC1(C)C(=O)Nc2cc(Nc3nc4c(NS(=O)(=O)c5ccc(N)cc5)nccn4n3)ccc21 [E118, 4-amino-N-[2-(3,3-dimethyl-2-oxo-2,3-dihydro-1H-indol-6-ylamino)-[1,2,4]triazolo[1,5-a]pyrazin-8-yl]benzenesulfonamide] | 3 to 50 µM | 
CN(C)CC1(O)CCCN(c2nccn3nc(Nc4ccc5c(c4)NC(=O)C5(C)C)nc23)CC1 (stereo not drawn) [E138, 6-[8-(4-dimethylaminomethyl-4-hydroxy-azepan-1-yl)-[1,2,4]triazolo[1,5-a]pyrazin-2-ylamino]-3,3-dimethyl-1,3-dihydro-indol-2-one] | 0.1 to 0.3 µM | 
CC1CCCN1c1nccn2nc(Nc3ccc4c(c3)NC(=O)C4(C)C)nc12 (stereo not drawn) [E42, 3,3-dimethyl-6-[8-(2-methyl-pyrrolidin-1-yl)-[1,2,4]triazolo[1,5-a]pyrazin-2-ylamino]-1,3-dihydro-indol-2-one] | < 0.1 µM | 
